# According to US20250228851A1, “ALLOSTERIC INHIBITOR COMPOUNDS FOR OVERCOMING CANCER RESISTANCE” (priority 2021, published 2025):
# pIC50: −log10 of the molar value.
# Assays:
# [1] = tested on: BV173 cells (p210-BCR-ABL); assay: XTT cell viability, BV173; format: cell-based, human
# Protocol: FIG. 2: Effect of Compound 16 on leukemia cell lines (Jurkat, Sup-B15 and BV173). Cell viablility (CV) was determined following incubation of the 1 m cells/ml of each cell line with increasing concentration of the Compound 16 [empty vehicle (0.0 μM+IL3), 2.5, 5.0 and 10.0 μM]. CV was measured by the XTT method. The means±SD of triplicates from one representative experiment out of three performed are given.
# Effect of Compound 16 on […] Jurkat (immortalized T lymphocytes derived from the peripheral blood of a child suffering from leukemia. Jurkat cells are often used to study acute T cell leukemia, T cell signaling, and the expression of various chemokine receptors in this experiment Jurkat cells are taken as control), Sup-B15 and BV173. Three Ph+ cells were used to assess the effect of Compound 16. Relevant concentration of the compound was added to seeded cells at day 1 (24 hrs) and cytotoxicity and proliferation were assessed at after 24, 48, 72, 96 and 120 h by XTT. The control was cells exposed to empty vehicle (0 μM, green line in each case), 1, 2 and 5 μM concentration of Compound 16 were administered to the three cell lines. […] The means±SD of triplicates from one representative experiment out of three performed are given. It could be concluded that though Compound 16 inhibits Ph+ Sup-B15 and BV173 are responsive towards Compound 16 with the notion that p210-BCR-ABL leukemia cells at lymphoblastic blast crisis stage are quite more sensitive than p185-BCR-ABL ALL cells at corresponding inhibitor concentration.
# FIG. 6: Sensitivity of Sup-B15 (p185-BCR-ABL) compared BV173 cells (p210-BCR-ABL) towards increasing concentration of Compound 16. Ph+ cells were used to assess the effect of Compound 16. To assess the antiproliferative effect, cells were incubated with increasing concentration [0, 2, 4, 6, 8, and 10 μM] of Compound 16 and the viability was assessed using XTT. The means±SD of triplicates from one representative experiment out of three performed are given.
# [2] = tested on: PINCO transfected Ba/F3 cells; assay: XTT cell viability, Ba/F3 transduced with empty vector (PINCO); format: cell-based, murine; settings: increasing concentration up to 10 μM
# Protocol: • 1. Ba/F3 cells were obtained from the German Collection of Microorganisms and Cell Cultures (DSMZ, Braunschweig, Germany) and maintained in RPMI 1640 medium supplemented with 10% fetal calf serum (Invitrogen) containing 10 ng/ml of interleukin-3 (Cell Concepts, Umkirch, Germany). Ecotropic Phoenix cells and Rat-1 cells were cultured in Dulbecco's modified Eagle's medium supplemented with 10% fetal calf serum. GNF-2 (Sigma-Adrich, Steinheim, Germany) was dissolved in dimethyl sulfoxide and added at a final concentration of […]. Cell growth was assessed by dye exclusion using Trypan blue. Proliferation was assessed using the XTT proliferation kit (Roche, Mannheim, Germany), according to the manufacturer's instructions. • 2. Ba/F3: IL-3 dependent lymphatic murine pro B cell line. Ba/F3 cells expressing either p185-BCR-ABL1 (p185-BCR-ABL-Ba/F3) or p210-BCR-ABL (p210-BCR-ABL-Ba/F3). p185-BCR-ABL1 (activated kinases substitute for the IL-3 signaling and therefore render the cells IL3 independent. Ba/F3 cells expressing either p185-BCR-ABL (p185-Ba/F3) or p210-BCR-ABL (p210-Ba/F3). Ba/F3 cells obtained from the German Collection of Microorganisms and Cell Cultures (DSMZ, Braunschweig, Germany). • 3. Mutant transduced Ba/F3 cells (T315I-p185-BCR-ABL1 or T315I-p210-BCR-ABL1): Ba/F3 cells expressing either the mutated forms T315I-p185-BCR-ABL1 or T315I-p210-BCR-ABL1. • 4. WT-Sup-B15: A Ph+ ALL cell line harboring the p185-BCR-ABL. Sup-B15: established from the bone marrow of a child with acute lymphoblastic leukemia (B cell precursor ALL) in second relapse in 1984; described in the literature to carry the ALL-variant (m-BCR) of the BCR-ABL1 fusion gene (e1-a2) correct, because it results in the p185-BCR-ABL version. • 5. […]
# FIG. 11: Antiproliferative effect of Compound 16 on PINCO transfected Ba/F3 cells. […] Proliferation status was determined by the metabolic activity of cells given by the reduction rate of XTT to formazan. […]
# HP (Ph− ALL cultures) = assay: Proliferation by dye exclusion after three days, HP; format: cell-based, human; settings: HP, 2.5, 5 and 10 μM
# Protocol: FIG. 3. […] Cells were exposed to increasing concentration of 2.5, 5 and 10 μM of Compound 16. The negative control cell lines Ph− ALL HP was irresponsive to increasing concentration of Compound 16 (up to 10 μM). […] All four cell lines were plated in duplicates at the indicated concentrations, and proliferation was assessed after three days by dye exclusion of viable cells. […] The sensitivity of Ph+ cells to Compound 16 underlines the involvement of BCR-ABL in the antiproliferative mechanism. Death induction of BV173 cells is well taken as an indication of the ability of such group of compounds to overcome resistance that is originated in non-mutational grounds. However, the ability overcome the resistant T315I-BCR-ABL mutant, as shown in the dose-dependent manner of KÖ (circles), might be indicative for a non-ATP competitive mechanism of action.
smiles,measurement,setting,value
COc1ccc(C(=O)N2CCN(c3cc(Nc4ccc(OC(F)(F)F)cc4)ncn3)CC2)cc1OC [Compound 16],cells wiped,[1]; 2.5 μM,around 100%
same,pIC50,"[1]; BV173, XTT, estimated",~5.70
same,antiproliferative response (in words),"[1]; BV173, increasing concentration up to 10 μM",most sensitive
same,concentration sufficient to block proliferation,[1]; within 24 hours exposure,1 µM
same,antiproliferative response (in words),[2],No effect
same,response (in words),HP (Ph− ALL cultures),irresponsive
